From US8710097B2, “Flavonoid dimers and methods of making and using such” (The Hong Kong Polytechnic University, priority 2006, dated 2014)
Like-named read-outs stand apart in the source and are kept apart here.

What was measured:
[1] = tested on: pentamidine-resistant L. enriettii LePentR50 promastigotes; test: microbe, parasite or virus in culture; details: for IC50: Leishmania enriettii, 72 h, read-out: IC50(μM) of synthetic flavonoid, LePentR50, cytotoxicity of compound alone, 72 hrs; for pentamidine sensitization: LePentR50, FIG. 18A
Experimental: (§1) Cell lines and Cell Culture. Promastigotes of Leishmania enriettii (LePentR50, Le wild type, LeMDR1 −/− and LeMDR1-overexpressed LeV160 mutants) and Leishmania donovani (LdAG83, Ld2001 and Ld39) were employed in this study. The former is a natural infective strain of guinea pig and the latter is a clinical strain, which may cause visceral leishmaniasis in human. Both strains were cultured in Schneider's Drosophila Medium (Invitrogen), pH 6.9 supplemented with 10% (v/v) heat inactivated fetal calf serum (Hyclone) with 4 mM glutamine (Sigma) and 25 μg/mL gentamicin solution (Invitrogen), at 27° C. for 4 days (Cloning and functional analysis of an extrachromosomally amplified multidrug resistance-like gene in Leishmania enriettii. Mol. Biochem. Parasitol 1993, 60, 195-208).
Promastigotes of LeV160 were culture in the presence of 160 μg/mL vinblastine. No pentamidine and vinblastine (Sigma) was added to the Le wild type and LeMDR1 −/− mutant.
(§2) The viability of promastigotes was determined by the Cell Titer 96® Aqueous Assay (Promega) that employs a tetrazolium compound (MTS) and electron coupling reagent, phenazine methosulfate (PMS). Promastigotes were seeded into 96-well flat bottom microtiter plate at 1×10^5 cells per well in a final volume of 100 μL medium. To determine the cytotoxic effects of flavonoid dimers to the parasites, various concentrations of flavonoid dimers were added to the promastigotes. To determine the reversal effects of flavonoid dimers with different spacer lengths, various concentrations of antileishmanial drugs, one of pentamidine or SSG, vinblastine and puromycin was added to the wells with or without flavonoid dimers. The parasites were incubated at 27° C. for 72 hrs. Each concentration of antileishmanials with or without the flavonoid dimers was tested in triplicates in each experiment. A 2 mg/mL MTS and 0.92 mg/mL PMS were mixed at a ratio of 20:1 (MTS: PMS). After 72-hr incubation, 10 μL of MTS:PMS mixture was added into each well of microtiter plate. The plate was then incubated at 27° C. for 4 hrs for color development. After 4 hrs of incubation, the OD values were determined at 490 nm using automatic microtiter plate reader (Bio-Rad).

[2] = tested on: wild type L. donovani LdAG83 promastigotes; test: Leishmania cell viability (MTS) assay; assay type: cell-based, Leishmania donovani; details: Leishmania donovani, read-out: IC50(μM) of synthetic flavonoid, LdAG83
Experimental: as §1, with “195-208). […]” for “195-208).”
as §2

[3] = tested on: SSG-resistant L. donovani Ld39 promastigotes; test: microbe, parasite or virus in culture; assay type: cell-based, Leishmania donovani; details: for SSG resistance modulating activity: Ld39, FIG. 14B; for IC50: Leishmania donovani, 72 h, read-out: IC50(μM) of synthetic flavonoid, Ld39
Experimental: as §1, with “195-208). […]” for “195-208).”
as §2

P388/ADR cells = test: Doxorubicin accumulation; assay type: cell-based, murine; details: monomer 10b at double concentration of the dimers, FIG. 11A
Experimental: For P388 (both parent and MDR subtype) cells, 1 ml (10^5 cells) confluent cells were aliquot into Eppendorf tube and pre-incubated with flavone dimers for 30 min at 37° C. Doxorubicin (final concentration of 10 μM) was then added and incubated for 2 h at 37° C. at a final concentration of 10 μM. The cell pellets were washed 3 times with cold PBS by using an Eppendorf micro-centrifuge and lysed with 0.3N HCL in 50% ethanol, and sonicated for 30s. After centrifugation at 10000 rpm/min for 3 min, the supernatant was saved. The fluorescence of doxorubicin was measured using a spectrofluorometer (λexcite=470 nm, λemit=585 nm).

MDA435/LCC6 MDR cells = test: cells; details: for doxorubicin sensitization / reversing effect on taxol resistance: MDA435/LCC6 MDR; for doxorubicin sensitization: dimers; for reversing effect on taxol resistance: dimers at 5 μM; for reversing activity compared with verapamil: LCC6MDR, taxol, 5 μM
Experimental: MDA435/LCC6 and P388 (both parent and MDR subtype) were maintained in DMEM and RPMI 1640 culture medium supplemented with 10% FBS, respectively. RPMI 1640 media also contained 100 units/ml penicillin and 100 μg/ml streptomycin. Cells were cultured at 37° C. in a humidified atmosphere with 5% CO2. A solution of 0.05% trypsin-EDTA was used to detach the MDA435/LCC6 (both wild type and MDR subtype) cells.
Cell proliferation assay. MDA435/LCC6 and P388 (both parent and MDR subtype) cells were seeded at 2000 and 5000 cells per well, respectively, in 96-well plates. Varying concentrations of anticancer drugs (Doxorubicin, Daunorubicin, Vincristine, Vinblastine, taxol, Mitoxantrone) with or without the flavonoid dimers were added in a final volume of 200 μl and cells were grown for 4 and 3 days for MDA435/LCC6 and P388 (both parent and MDR subtype) cells, respectively. For MDA435/LCC6 (both parent and MDR subtype), the corresponding drugs were added after cell attachment (24 hr incubation). To measure cell proliferation, the cell Titer 960 Aqueous Assay (Promega) was used according to the manufacturer's instructions. Briefly, MTS (2 mg/ml) and PMS (0.92 mg/ml) were mixed in a ratio of 20:1. 30 μl MTS/PMS mixture was added into each well and incubated for 2 hours at 37° C. Optical absorbance at 490 nm was then recorded using an ELISA microtiter plate reader (Bio-Rad). Each experiment was done at least in triplicate and repeated twice. Cytotoxicity of the anticancer drugs was expressed as the fraction of the cells survived relative to the untreated DMSO (0.05%) solvent controls.
MDA435/LCC6 is an estrogen-independent human breast cancer cell line. Its MDR subtype (MDA435/LCC6 MDR) was generated by transducing a retroviral vector directing the constitutive expression of the human MDR1 cDNA, producing a cell line with a classical MDR1 resistance pattern (MDA435/LCC6 and MDA435/LCC6MDR1: ascites models of human breast cancer. Br J Cancer 1996, 73, 154-161). The ability of the apigenin dimers of this invention to reverse taxol resistance in MDA435/LCC6 MDR cells were tested. […] Apigenin monomers 10a and 10b at 10 μM were used as the negative controls.

O=c1cc(-c2ccc(O)cc2)oc2cc(O)cc(O)c12 [Apigenin, reference compound]
IC50 [1]: 55 ± 2.6 µM
IC50 ([2]; cytotoxicity of compound alone, 72 hrs): 32 ± 4.1 µM
SSG resistance modulating activity ([3]; 12 μM): did not give any significant modulating activity
IC50 [3]: 43 ± 5.9 µM

O=c1cc(-c2ccc(OCCOc3ccc(-c4cc(=O)c5c(O)cc(O)cc5o4)cc3)cc2)oc2cc(O)cc(O)c12 [Compound 9a, 1,4-Bis[4′-((5,7-dihydroxy)-4H-chromen-4-on-2-yl)phenyl]-1,4-dioxabutane]
activity on doxorubicin accumulation (P388/ADR cells): little or no activity at all
doxorubicin sensitization (MDA435/LCC6 MDR cells): very little or no doxorubicin sensitization
reversing effect on taxol resistance (MDA435/LCC6 MDR cells): little or no reversing effect
IC50 [1]: > 200 µM
IC50 ([2]; 72 h): 95 ± 3.2 µM
SSG resistance modulating activity ([3]; dimers at 6 μM): did not show substantial SSG resistance modulating activity
IC50 [3]: 117 ± 10 µM

O=c1cc(-c2ccc(OCCOCCOCCOCCOCCOc3ccc(-c4cc(=O)c5c(O)cc(O)cc5o4)cc3)cc2)oc2cc(O)cc(O)c12 [Compound 9e, 1,16-Bis[4′-((5,7-dihydroxy)-4H-chromen-4-on-2-yl)phenyl]-1,4,7,10,13,16-hexaoxahexadecane]
activity on doxorubicin accumulation (P388/ADR cells): little or no activity at all
doxorubicin sensitization (MDA435/LCC6 MDR cells): very little or no doxorubicin sensitization
reversing effect on taxol resistance (MDA435/LCC6 MDR cells): little or no reversing effect
IC50 [1]: 70 ± 3 µM
IC50 ([2]; 72 h): 30 ± 1.2 µM
IC50 [3]: 42 ± 2.3 µM

O=c1cc(-c2ccc(OCCOCCOCCOCCOCCOCCOc3ccc(-c4cc(=O)c5c(O)cc(O)cc5o4)cc3)cc2)oc2cc(O)cc(O)c12 [Compound 9f, 1,19-Bis[4′-((5,7-dihydroxy)-4H-chromen-4-on-2-yl)phenyl]-1,4,7,10,13,16,19-heptaoxanonadecane]
doxorubicin sensitization (MDA435/LCC6 MDR cells): very little or no doxorubicin sensitization
reversing effect on taxol resistance (MDA435/LCC6 MDR cells): little or no reversing effect
IC50 [1]: 40 ± 5.3 µM
IC50 ([2]; 72 h): 11 ± 2 µM
IC50 [3]: 13 ± 0.6 µM

O=c1cc(-c2ccc(OCCOCCOCCOCCOCCOCCOCCOCCOCCOc3ccc(-c4cc(=O)c5c(O)cc(O)cc5o4)cc3)cc2)oc2cc(O)cc(O)c12 [Compound 9i, 1,28-Bis[4′-((5,7-dihydroxy)-4H-chromen-4-on-2-yl)phenyl]-1,4,7,10,13,16,19,22,25,28-decaoxaoctacosane]
IC50 ([2]; 72 h): 10 ± 0.3 µM
IC50 [3]: 14 ± 0.1 µM

O=c1cc(-c2ccc(OCCOCCOCCOCCOc3ccc(-c4cc(=O)c5ccccc5o4)cc3)cc2)oc2ccccc12 [Compound 35a, 1,13-Bis[4′-(4H-chromen-4-on-2-yl)phenyl]-1,4,7,10,13-pentaoxamidecane]
reversing activity compared with verapamil (MDA435/LCC6 MDR cells): stronger reversing activity than verapamil

O=c1cc(-c2ccc(OCCOCCOCCOCCOc3ccc(-c4cc(=O)c5ccc(F)cc5o4)cc3)cc2)oc2cc(F)ccc12 [Compound 35b, 1,13-Bis[4′-(7-fluoro-4H-chromen-4-on-2-yl)phenyl]-1,4,7,10,13-pentaoxamidecane]
reversing activity compared with verapamil (MDA435/LCC6 MDR cells): stronger reversing activity than verapamil

O=c1cc(-c2ccc(OCCOCCOCCOCCOc3ccc(-c4cc(=O)c5cc(Cl)cc(Cl)c5o4)cc3)cc2)oc2c(Cl)cc(Cl)cc12 [Compound 35f, 1,13-Bis[4′-(6,8-dichloro-4H-chromen-4-on-2-yl)phenyl]-1,4,7,10,13-pentaoxamidecane]
reversing activity compared with verapamil (MDA435/LCC6 MDR cells): stronger reversing activity than verapamil

Cc1ccc2c(=O)cc(-c3ccc(OCCOCCOCCOCCOc4ccc(-c5cc(=O)c6ccc(C)cc6o5)cc4)cc3)oc2c1 [Compound 35g, 1,13-Bis[4′-(7-methyl-4H-chromen-4-on-2-yl)phenyl]-1,4,7,10,13-pentaoxamidecane]
reversing activity compared with verapamil (MDA435/LCC6 MDR cells): stronger reversing activity than verapamil

Cc1ccc2oc(-c3ccc(OCCOCCOCCOCCOc4ccc(-c5cc(=O)c6cc(C)ccc6o5)cc4)cc3)cc(=O)c2c1 [Compound 35h, 1,13-Bis[4′-(6-methyl-4H-chromen-4-on-2-yl)phenyl]-1,4,7,10,13-pentaoxamidecane]
reversing activity compared with verapamil (MDA435/LCC6 MDR cells): stronger reversing activity than verapamil

CCN(CC)CCCC(C)Nc1c2ccc(Cl)cc2nc2ccc(OC)cc12 (stereo not drawn) [quinacrine, reference compound]
pentamidine sensitization [1]: ~4.5 fold

C=C[C@H]1C[N@@]2CC[C@H]1C[C@@H]2[C@@H](O)c1ccnc2ccc(OC)cc12 [quinidine, reference compound]
pentamidine sensitization [1]: less than half-fold sensitization

C=C[C@H]1C[N@@]2CC[C@H]1C[C@H]2[C@H](O)c1ccnc2ccc(OC)cc12 [quinine, reference compound]
pentamidine sensitization [1]: less than half-fold sensitization

COC(=O)[C@H]1[C@H]2C[C@@H]3c4[nH]c5cc(OC)ccc5c4CCN3C[C@H]2C[C@@H](OC(=O)c2cc(OC)c(OC)c(OC)c2)[C@@H]1OC [reserpine, reference compound]
pentamidine sensitization [1]: ~3.2 fold
